Consider one compound from publication PMC7853427 (Journal of the American Chemical Society, 2021).

The assay deals with E. coli PheRS (Escherichia coli, UniProt P08312). In words: inhibition of Phe activation by purified PheRS. In kind it is biochemical.
Sequence of E. coli PheRS (P08312 whole entry): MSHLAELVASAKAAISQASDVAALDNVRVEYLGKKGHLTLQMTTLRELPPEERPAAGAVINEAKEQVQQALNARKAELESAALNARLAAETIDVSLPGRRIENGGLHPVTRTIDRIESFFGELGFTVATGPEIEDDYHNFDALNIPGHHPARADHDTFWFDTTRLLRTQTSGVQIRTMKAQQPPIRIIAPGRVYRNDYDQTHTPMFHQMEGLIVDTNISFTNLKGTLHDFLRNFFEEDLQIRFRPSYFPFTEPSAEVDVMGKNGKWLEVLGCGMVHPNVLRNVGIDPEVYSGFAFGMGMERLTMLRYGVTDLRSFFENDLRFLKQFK
Sequence of E. coli PheRS (P07395 whole entry partner): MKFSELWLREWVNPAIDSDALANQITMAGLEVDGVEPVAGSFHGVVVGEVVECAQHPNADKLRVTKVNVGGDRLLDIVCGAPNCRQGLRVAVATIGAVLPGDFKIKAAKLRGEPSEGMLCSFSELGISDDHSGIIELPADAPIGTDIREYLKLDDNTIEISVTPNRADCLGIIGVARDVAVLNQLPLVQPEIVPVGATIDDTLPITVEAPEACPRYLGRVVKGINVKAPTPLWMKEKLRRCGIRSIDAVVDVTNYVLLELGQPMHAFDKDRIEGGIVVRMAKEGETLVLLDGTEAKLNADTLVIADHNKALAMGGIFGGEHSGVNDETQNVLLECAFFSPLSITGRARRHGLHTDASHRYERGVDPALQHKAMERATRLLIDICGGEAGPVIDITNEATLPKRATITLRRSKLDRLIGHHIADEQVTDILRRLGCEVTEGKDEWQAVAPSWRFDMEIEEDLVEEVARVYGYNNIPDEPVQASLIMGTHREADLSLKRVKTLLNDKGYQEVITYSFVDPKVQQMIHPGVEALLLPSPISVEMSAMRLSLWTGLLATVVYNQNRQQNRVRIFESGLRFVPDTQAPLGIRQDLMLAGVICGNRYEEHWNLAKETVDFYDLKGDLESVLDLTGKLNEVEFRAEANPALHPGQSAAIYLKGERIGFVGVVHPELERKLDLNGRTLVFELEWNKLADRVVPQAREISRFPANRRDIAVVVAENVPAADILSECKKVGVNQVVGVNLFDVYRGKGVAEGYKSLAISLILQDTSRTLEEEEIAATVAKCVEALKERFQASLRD

Consider `CC(Cc1ccccc1)NCc1ccccc1` (stereo not shown) [compound 20, norbenzamphetamine], for which the IC50 (as a rule, the midpoint of a concentration-inhibition curve) was 169 µM.
